The values that follow come from patent US20250163104A1, “MACROCYCLIC IMMUNOMODULATORS” (priority 2021, published 2025).

Where a SMILES comes first, the peptide text is derived from it. Bridges are numbered along the chain shown (N, C = ends). [ ]: non-standard residue; d: D form. The star is where a group is joined. Phg(4-Ph) = N[C@H](C(=O)O)c1ccc(-c2ccccc2)cc1; Bip = N[C@@H](Cc1ccc(-c2ccccc2)cc1)C(=O)O; Cha = N[C@@H](CC1CCCCC1)C(=O)O; Cit = NC(=O)NCCC[C@H](N)C(=O)O; Ahp(2) = CCCCC[C@H](N)C(=O)O; Carboxymethyl = O=C(O)C*; Orn = NCCC[C@H](N)C(=O)O; Dab = NCC[C@H](N)C(=O)O; Dap = NC[C@H](N)C(=O)O

In this test the target is T1, human PD-1 / PD-L1-Ig binding on Jurkat cell line over-expressing human PD-1 (Jurkat-PD-1) (Homo sapiens, UniProt Q15116).
T1 construct: expressed in transfected cells; host or cells: Jurkat
T1 sequence (Q15116 25-288): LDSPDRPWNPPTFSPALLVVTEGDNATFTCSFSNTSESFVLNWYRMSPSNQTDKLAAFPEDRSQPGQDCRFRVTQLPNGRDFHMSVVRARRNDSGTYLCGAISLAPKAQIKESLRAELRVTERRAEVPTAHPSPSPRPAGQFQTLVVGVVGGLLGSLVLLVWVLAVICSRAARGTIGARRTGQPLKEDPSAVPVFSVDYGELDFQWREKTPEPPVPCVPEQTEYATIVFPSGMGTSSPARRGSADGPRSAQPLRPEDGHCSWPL
The experiment in a line: Jurkat-PD-1 Cell Binding High-Content Screening Assay (CBA). In kind it is cell-based. The conditions noted are these: Jurkat-PD-1 cells, PE-labeled PD-L1-Ig 20 nM final; read-out: Jurkat HPD1_PDL1 IC50. On the procedure: Example 3. Jurkat-PD-1 Cell Binding High-Content Screening Assay (CBA)
Jurkat-PD-1 Cell Binding High-Content Screening Assay (CBA). Phycoerythrin (PE) was covalently linked to the Ig epitope tag of human PD-L1-Ig and fluorescently-labeled PD-L1-Ig was used for binding studies with a Jurkat cell line over-expressing human PD-1 (Jurkat-PD-1). Briefly, 8×10^3 Jurkat-hPD-1 cells were seeded into 384 well plates in 20 μl of DMEM supplemented with 10% fetal calf serum. 100 nL of compound was added to cells followed by incubation at 37° C. for 2 h. Then, 5 μl of PE-labeled PD-L1-Ig (20 nM final), diluted in DMEM supplemented with 10% fetal calf serum. After 1 hour incubation, cells were fixed with 4% paraformaldehyde in dPBS containing 10 μg/ml Hoechst 33342 and then washed 3x in 100 μl dPBS. Data was collected and processed using a Cell Insight NXT High Content Imager and associated software.
As for `Cc1cccc(C[C@@H]2NC(=O)[C@H](CC(=O)O)NC(=O)[C@H](Cc3ccc(OCC(=O)O)cc3)NC(=O)[C@H](Cc3ccncc3)NC(=O)CSC[C@@H](C(=O)N[C@@H](CCN)C(N)=O)NC(=O)[C@H](CO)NC(=O)[C@H](C(C)(C)O)NC(=O)[C@H](CC3CCCCC3)NC(=O)[C@H](CCN)NC(=O)[C@@H](CC(C)C)NC(=O)C(C3CCNCC3)NC(=O)[C@H](Cc3ccc(OCC(=O)O)cc3)NC(=O)[C@H](Cc3ccc(-c4ccccc4)cc3)NC(=O)[C@H](Cc3ccc(OCC(=O)O)cc3)NC2=O)c1` (mixture of isomers) [Compound 2084], the IC50 is 209 nM. Regarding `CCCCC[C@@H]1NC(=O)[C@H](C(C)C)NC(=O)[C@@H](Cc2ccccc2)NC(=O)[C@H](CC(=O)O)NC(=O)[C@H](CCCNC(=N)N)NC(=O)[C@H](c2ccc(-c3ccccc3)cc2)NC(=O)[C@H](C(C)C)NC(=O)[C@H](Cc2c[nH]c3ccccc23)NC(=O)[C@H](CC(=O)O)NC(=O)[C@H](Cc2ccc(O)cc2)NC(=O)[C@H](Cc2ccccc2)NC(=O)CSC[C@@H](C(=O)NCC(N)=O)NC(=O)[C@H](CO)NC(=O)[C@H](C(C)C)NC1=O` [Compound 1000] ({CH2CO}-FYDWV[Phg(4-Ph)]RD[dF]V[Ahp(2)]VSCG-NH2; thioether N-14), the IC50 was 251 nM. Under `CC(C)C[C@@H]1NC(=O)[C@H](CCN)NC(=O)[C@@H](CC(C)C)NC(=O)[C@H](C)NC(=O)[C@H](CCCNC(=N)N)NC(=O)[C@H](Cc2ccc(-c3ccccc3)cc2)NC(=O)[C@H](C(C)C)NC(=O)[C@H](Cc2c[nH]c3ccccc23)NC(=O)[C@H](CC(=O)O)NC(=O)[C@H](Cc2ccc(O)cc2)NC(=O)[C@H](CC(N)=O)NC(=O)CSC[C@@H](C(=O)N[C@@H](C)C(N)=O)NC(=O)[C@H]([C@@H](C)O)NC(=O)[C@H](C(C)C)NC1=O` [Compound 1001] ({CH2CO}-NYDWV[Bip]RA[dL][Dab]LVTCA-NH2; thioether N-14) stands 140 nM; under `COC[C@@H]1NC(=O)[C@H](Cc2c[nH]c3ccccc23)NC(=O)[C@H](CC(=O)O)NC(=O)[C@H](Cc2ccc(OCC(=O)O)cc2)NC(=O)[C@H](CN)NC(=O)CSC[C@@H](C(=O)N[C@@H](C)C(N)=O)NC(=O)[C@H]([C@@H](C)O)NC(=O)[C@H](C(C)C)NC(=O)[C@H](CC2CCCCC2)NC(=O)[C@H](CCN)NC(=O)[C@@H](CC(C)C)NC(=O)[C@H](CCCN)NC(=O)[C@H](CCCNC(N)=O)NC(=O)[C@H](Cc2ccc(-c3ccccc3)cc2)NC1=O` [Compound 1002] ({CH2CO}-[Dap]Y(Carboxymethyl)DWS(Me)[Bip][Cit][Orn][dL][Dab][Cha]VTCA-NH2; thioether N-14), 17.2 nM. Under `CCCCC[C@@H]1NC(=O)[C@H](C(C)C)NC(=O)[C@H](Cc2ccccc2)NC(=O)[C@H](CC(=O)O)NC(=O)[C@H](CCCNC(=N)N)NC(=O)[C@H](Cc2ccc(-c3ccccc3)cc2)NC(=O)[C@H](C(C)C)NC(=O)[C@H](Cc2c[nH]c3ccccc23)NC(=O)[C@H](CC(=O)O)NC(=O)[C@H](Cc2ccc(O)cc2)NC(=O)[C@H](Cc2ccccc2)NC(=O)CSC[C@@H](C(=O)NCC(N)=O)NC(=O)[C@H](CO)NC(=O)[C@H](C(C)C)NC1=O` [Compound 1003] ({CH2CO}-FYDWV[Bip]RDFV[Ahp(2)]VSCG-NH2; thioether N-14) stands 614 nM; under `CC(C)C[C@@H]1NC(=O)[C@H](CCN)NC(=O)[C@@H](CC(C)C)NC(=O)[C@H](CCN)NC(=O)[C@H](CCCNC(=N)N)NC(=O)[C@H](Cc2ccc(-c3ccccc3)cc2)NC(=O)[C@H](C(C)C)NC(=O)[C@H](Cc2c[nH]c3ccccc23)NC(=O)[C@H](CC(=O)O)NC(=O)[C@H](Cc2ccc(O)cc2)NC(=O)[C@H](CC(N)=O)NC(=O)CSC[C@@H](C(=O)N[C@@H](C)C(N)=O)NC(=O)[C@H]([C@@H](C)O)NC(=O)[C@H](C(C)C)NC1=O` [Compound 1004] ({CH2CO}-NYDWV[Bip]R[Dab][dL][Dab]LVTCA-NH2; thioether N-14), 53.2 nM; under `CC(C)C[C@@H]1NC(=O)[C@H](CCN)NC(=O)[C@@H](CC(C)C)NC(=O)[C@H](CCCN)NC(=O)[C@H](CCCNC(=N)N)NC(=O)[C@H](Cc2ccc(-c3ccccc3)cc2)NC(=O)[C@H](C(C)C)NC(=O)[C@H](Cc2c[nH]c3ccccc23)NC(=O)[C@H](CC(=O)O)NC(=O)[C@H](Cc2ccc(O)cc2)NC(=O)[C@H](CC(N)=O)NC(=O)CSC[C@@H](C(=O)N[C@@H](C)C(N)=O)NC(=O)[C@H]([C@@H](C)O)NC(=O)[C@H](C(C)C)NC1=O` [Compound 1005] ({CH2CO}-NYDWV[Bip]R[Orn][dL][Dab]LVTCA-NH2; thioether N-14), 35.8 nM. `CC(C)C[C@@H]1NC(=O)[C@H](CCCNC(=N)N)NC(=O)[C@@H](CC(C)C)NC(=O)[C@H](C)NC(=O)[C@H](CCCNC(=N)N)NC(=O)[C@H](Cc2ccc(-c3ccccc3)cc2)NC(=O)[C@H](C(C)C)NC(=O)[C@H](Cc2c[nH]c3ccccc23)NC(=O)[C@H](CC(=O)O)NC(=O)[C@H](Cc2ccc(O)cc2)NC(=O)[C@H](CC(N)=O)NC(=O)CSC[C@@H](C(=O)N[C@@H](C)C(N)=O)NC(=O)[C@H]([C@@H](C)O)NC(=O)[C@H](C(C)C)NC1=O` [Compound 1006] ({CH2CO}-NYDWV[Bip]RA[dL]RLVTCA-NH2; thioether N-14): the IC50 was found to be 98.1 nM. Under `CC(C)C[C@@H]1NC(=O)[C@H](CCCNC(=N)N)NC(=O)[C@@H](CC(C)C)NC(=O)[C@H](CCCCN)NC(=O)[C@H](CCCNC(=N)N)NC(=O)[C@H](Cc2ccc(-c3ccccc3)cc2)NC(=O)[C@H](C(C)C)NC(=O)[C@H](Cc2c[nH]c3ccccc23)NC(=O)[C@H](CC(=O)O)NC(=O)[C@H](Cc2ccc(O)cc2)NC(=O)[C@H](CC(N)=O)NC(=O)CSC[C@@H](C(=O)N[C@@H](C)C(N)=O)NC(=O)[C@H]([C@@H](C)O)NC(=O)[C@H](C(C)C)NC1=O` [Compound 1007] ({CH2CO}-NYDWV[Bip]RK[dL]RLVTCA-NH2; thioether N-14) stands 45.3 nM; under `CC(C)C[C@@H]1NC(=O)[C@H](CCN)NC(=O)[C@@H](CC(C)C)NC(=O)[C@H](CCCCN)NC(=O)[C@H](CCCNC(=N)N)NC(=O)[C@H](Cc2ccc(-c3ccccc3)cc2)NC(=O)[C@H](C(C)C)NC(=O)[C@H](Cc2c[nH]c3ccccc23)NC(=O)[C@H](CC(=O)O)NC(=O)[C@H](Cc2ccc(O)cc2)NC(=O)[C@H](CC(N)=O)NC(=O)CSC[C@@H](C(=O)N[C@@H](C)C(N)=O)NC(=O)[C@H]([C@@H](C)O)NC(=O)[C@H](C(C)C)NC1=O` [Compound 1008] ({CH2CO}-NYDWV[Bip]RK[dL][Dab]LVTCA-NH2; thioether N-14), 59.9 nM.

Turning to `CC(C)C[C@@H]1NC(=O)[C@H](CCN)NC(=O)[C@@H](CC(C)C)NC(=O)[C@H](CN)NC(=O)[C@H](CCCNC(=N)N)NC(=O)[C@H](Cc2ccc(-c3ccccc3)cc2)NC(=O)[C@H](C(C)C)NC(=O)[C@H](Cc2c[nH]c3ccccc23)NC(=O)[C@H](CC(=O)O)NC(=O)[C@H](Cc2ccc(O)cc2)NC(=O)[C@H](CC(N)=O)NC(=O)CSC[C@@H](C(=O)N[C@@H](C)C(N)=O)NC(=O)[C@H]([C@@H](C)O)NC(=O)[C@H](C(C)C)NC1=O` [Compound 1009] ({CH2CO}-NYDWV[Bip]R[Dap][dL][Dab]LVTCA-NH2; thioether N-14), the IC50 stood at 52.9 nM. Consider `CC(C)C[C@@H]1NC(=O)[C@H](CCCNC(=N)N)NC(=O)[C@@H](CC(C)C)NC(=O)[C@H](CN)NC(=O)[C@H](CCCNC(=N)N)NC(=O)[C@H](Cc2ccc(-c3ccccc3)cc2)NC(=O)[C@H](C(C)C)NC(=O)[C@H](Cc2c[nH]c3ccccc23)NC(=O)[C@H](CC(=O)O)NC(=O)[C@H](Cc2ccc(O)cc2)NC(=O)[C@H](CC(N)=O)NC(=O)CSC[C@@H](C(=O)N[C@@H](C)C(N)=O)NC(=O)[C@H]([C@@H](C)O)NC(=O)[C@H](C(C)C)NC1=O` [Compound 1010] ({CH2CO}-NYDWV[Bip]R[Dap][dL]RLVTCA-NH2; thioether N-14), for which the 50% inhibitory concentration (IC50) stood at 99.6 nM.

Turning to `CC(C)C[C@@H]1NC(=O)[C@H](CCCNC(=N)N)NC(=O)[C@@H](CC(C)C)NC(=O)[C@H](CCN)NC(=O)[C@H](CCCNC(=N)N)NC(=O)[C@H](Cc2ccc(-c3ccccc3)cc2)NC(=O)[C@H](C(C)C)NC(=O)[C@H](Cc2c[nH]c3ccccc23)NC(=O)[C@H](CC(=O)O)NC(=O)[C@H](Cc2ccc(O)cc2)NC(=O)[C@H](CC(N)=O)NC(=O)CSC[C@@H](C(=O)N[C@@H](C)C(N)=O)NC(=O)[C@H]([C@@H](C)O)NC(=O)[C@H](C(C)C)NC1=O` [Compound 1011] ({CH2CO}-NYDWV[Bip]R[Dab][dL]RLVTCA-NH2; thioether N-14), the IC50 came out at 67.1 nM. Under `CC(C)C[C@@H]1NC(=O)[C@H](CCCNC(=N)N)NC(=O)[C@@H](CC(C)C)NC(=O)[C@H](CCCN)NC(=O)[C@H](CCCNC(=N)N)NC(=O)[C@H](Cc2ccc(-c3ccccc3)cc2)NC(=O)[C@H](C(C)C)NC(=O)[C@H](Cc2c[nH]c3ccccc23)NC(=O)[C@H](CC(=O)O)NC(=O)[C@H](Cc2ccc(O)cc2)NC(=O)[C@H](CC(N)=O)NC(=O)CSC[C@@H](C(=O)N[C@@H](C)C(N)=O)NC(=O)[C@H]([C@@H](C)O)NC(=O)[C@H](C(C)C)NC1=O` [Compound 1012] ({CH2CO}-NYDWV[Bip]R[Orn][dL]RLVTCA-NH2; thioether N-14) stands 43.6 nM; under `CC(C)C[C@@H]1NC(=O)[C@H](CCCNC(=N)N)NC(=O)[C@@H](CC(C)C)NC(=O)[C@@H](CCCCN)NC(=O)[C@H](CCCNC(=N)N)NC(=O)[C@H](Cc2ccc(-c3ccccc3)cc2)NC(=O)[C@H](C(C)C)NC(=O)[C@H](Cc2c[nH]c3ccccc23)NC(=O)[C@H](CC(=O)O)NC(=O)[C@H](Cc2ccc(O)cc2)NC(=O)[C@H](CC(N)=O)NC(=O)CSC[C@@H](C(=O)N[C@@H](C)C(N)=O)NC(=O)[C@H]([C@@H](C)O)NC(=O)[C@H](C(C)C)NC1=O` [Compound 1013] ({CH2CO}-NYDWV[Bip]R[dK][dL]RLVTCA-NH2; thioether N-14), 129 nM.
